# Assay results published in patent publication US9408871B2, “Methods for inhibiting complement activation and uses thereof” (THE UNIVERSITY OF BRITISH COLUMBIA, priority 2013, dated 2016).
# Molecular target: T1, C5b,6 (Homo sapiens, UniProt P01031+P13671)
# T1 construct: C5 convertase that cleaves C5 into C5a and C5b; human plasma-derived C5b,6, C7, C8, and C9; purchased Complement Technology, Inc. (Tyler, Tex., USA); host or cells: human plasma
# Test: analytic gel filtration
# Assay type: binding
# Details: 10 mM
# Method: Proteins were stored in their stock solution buffers. The C5b,6 buffer consisted of 10 mM HEPES, 120 mM NaCl, pH 7.2. The C7 buffer consisted of 10 mM Na3PO4, 145 mM NaCl, at pH 7.3 (PBS). The buffers were filtered through a 0.22 μm pore diameter Stericup and Steritop Express™ PLUS filter from Millipore (Billerica, Mass., USA).
# Proteins were thawed at 37° C. for 10 min. An excess amount of protein was removed from the stock vial and transferred to a clean 600 μL microtube. C7 was diluted to […]. The proteins were centrifuged at 20,817 g for 15 min and under a Class 2A Biosafety Cabinet, 100 μL fractions were transferred to clean microtubes. The following samples were analyzed by gel filtration:
# For all samples, 20 μg of the protein in 100 μL of their respective buffers was prepared. For samples containing polyphosphate, 8 μL of 400 mM polyP>1000 was mixed with 2 μL of 5× concentrated HBS (for C5b,6) or PBS (for C7), yielding a solution of 320 mM polyP>1000 in HBS or PBS. 3.13 μL of the polyphosphate solution was added to 100 μL of either C5b,6 or C7, for a final polyP>1000 concentration of 9.71 mM. […]
# The gel filtration apparatus, ÄKTAmicro System from G.E. Healthcare (Buckinghamshire, UK), was equilibrated with either HBS (0.22 μm filtered) for C5b,6 or PBS (0.22 μm filtered) for C7 for at least 1 hour, at 5 μL per minute. […] Protein was monitored with UV absorbance at 280 nm. […]
# T1 sequence (P01031 19-673 limits assumed): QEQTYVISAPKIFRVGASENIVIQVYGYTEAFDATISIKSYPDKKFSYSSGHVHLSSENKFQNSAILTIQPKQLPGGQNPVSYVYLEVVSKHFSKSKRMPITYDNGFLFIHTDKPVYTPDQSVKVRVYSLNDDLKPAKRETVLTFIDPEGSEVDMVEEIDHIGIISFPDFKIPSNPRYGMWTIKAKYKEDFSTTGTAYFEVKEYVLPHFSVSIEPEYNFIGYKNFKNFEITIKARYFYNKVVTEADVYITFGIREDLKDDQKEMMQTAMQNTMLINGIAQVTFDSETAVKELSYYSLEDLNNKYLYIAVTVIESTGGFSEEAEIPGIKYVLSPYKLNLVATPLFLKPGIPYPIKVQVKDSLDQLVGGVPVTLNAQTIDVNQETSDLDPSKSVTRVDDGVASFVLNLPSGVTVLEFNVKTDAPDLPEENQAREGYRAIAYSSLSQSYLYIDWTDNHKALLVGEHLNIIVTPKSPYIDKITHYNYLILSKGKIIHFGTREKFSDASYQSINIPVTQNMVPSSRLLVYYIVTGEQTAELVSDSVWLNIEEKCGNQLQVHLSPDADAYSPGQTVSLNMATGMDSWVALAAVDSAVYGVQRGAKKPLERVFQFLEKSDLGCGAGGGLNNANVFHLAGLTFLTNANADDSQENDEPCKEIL
# T1 sequence (P01031 752-1676 limits assumed): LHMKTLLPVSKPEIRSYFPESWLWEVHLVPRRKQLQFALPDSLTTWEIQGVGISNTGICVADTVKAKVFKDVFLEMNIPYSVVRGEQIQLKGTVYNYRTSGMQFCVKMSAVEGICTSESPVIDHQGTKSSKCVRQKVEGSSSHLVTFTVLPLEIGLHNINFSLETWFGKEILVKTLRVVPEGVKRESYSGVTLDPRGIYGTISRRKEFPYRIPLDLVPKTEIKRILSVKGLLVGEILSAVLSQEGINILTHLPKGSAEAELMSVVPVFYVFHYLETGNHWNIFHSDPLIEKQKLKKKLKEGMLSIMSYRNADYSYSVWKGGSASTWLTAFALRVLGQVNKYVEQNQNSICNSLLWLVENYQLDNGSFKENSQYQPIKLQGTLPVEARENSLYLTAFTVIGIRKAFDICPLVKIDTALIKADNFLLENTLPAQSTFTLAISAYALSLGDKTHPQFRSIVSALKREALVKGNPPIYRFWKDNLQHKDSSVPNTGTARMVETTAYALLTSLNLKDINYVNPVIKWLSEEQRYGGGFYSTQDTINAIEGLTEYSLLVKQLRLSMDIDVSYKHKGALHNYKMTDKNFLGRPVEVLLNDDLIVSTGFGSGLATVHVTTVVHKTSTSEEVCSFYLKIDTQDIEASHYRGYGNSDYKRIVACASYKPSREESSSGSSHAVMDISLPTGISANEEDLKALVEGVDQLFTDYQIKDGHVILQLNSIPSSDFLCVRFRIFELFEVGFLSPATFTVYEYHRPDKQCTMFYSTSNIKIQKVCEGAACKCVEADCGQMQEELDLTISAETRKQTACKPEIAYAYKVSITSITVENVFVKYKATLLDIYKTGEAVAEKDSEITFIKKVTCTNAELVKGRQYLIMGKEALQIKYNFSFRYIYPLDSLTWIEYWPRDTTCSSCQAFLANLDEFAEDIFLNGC
# T1 sequence (P13671 22-934): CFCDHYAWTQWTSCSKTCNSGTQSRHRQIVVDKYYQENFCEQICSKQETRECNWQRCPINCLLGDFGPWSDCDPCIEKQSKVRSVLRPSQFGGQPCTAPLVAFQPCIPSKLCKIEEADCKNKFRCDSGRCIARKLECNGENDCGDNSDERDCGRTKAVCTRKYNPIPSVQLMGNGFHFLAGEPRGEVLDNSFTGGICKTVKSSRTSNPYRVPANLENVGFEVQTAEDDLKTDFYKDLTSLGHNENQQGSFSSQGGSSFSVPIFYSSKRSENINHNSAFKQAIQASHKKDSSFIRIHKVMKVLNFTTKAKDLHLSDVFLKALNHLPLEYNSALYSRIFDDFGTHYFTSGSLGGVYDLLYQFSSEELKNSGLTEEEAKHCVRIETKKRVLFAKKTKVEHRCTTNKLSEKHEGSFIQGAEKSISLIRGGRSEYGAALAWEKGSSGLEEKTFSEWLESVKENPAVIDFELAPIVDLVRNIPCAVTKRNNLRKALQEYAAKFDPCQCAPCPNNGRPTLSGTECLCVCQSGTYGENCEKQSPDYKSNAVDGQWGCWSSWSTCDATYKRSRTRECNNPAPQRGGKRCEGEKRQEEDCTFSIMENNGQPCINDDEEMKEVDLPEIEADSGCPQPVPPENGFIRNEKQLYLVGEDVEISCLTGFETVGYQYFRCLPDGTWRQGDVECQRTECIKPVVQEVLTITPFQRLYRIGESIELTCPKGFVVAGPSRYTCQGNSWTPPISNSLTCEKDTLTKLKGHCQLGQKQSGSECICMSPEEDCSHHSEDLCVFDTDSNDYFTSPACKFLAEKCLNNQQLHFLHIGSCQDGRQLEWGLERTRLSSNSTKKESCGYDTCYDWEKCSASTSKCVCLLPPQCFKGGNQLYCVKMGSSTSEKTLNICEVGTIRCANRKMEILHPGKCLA
smiles,measurement,value
"O=P(O)(O)O [P1, Orthophosphate]","effect on C5b,6 elution profile in gel filtration",did not affect the retention time or elution profile
